Test results: patent publication US11130756B2, “[1,2,4]Triazolo[4,3-A]pyridinyl substituted indole compounds” (BRISTOL-MYERS SQUIBB COMPANY, priority 2017, dated 2021)

Tests used:
Assay type in all cases: cell-based
human TLR7 = target: T1, human TLR7 (Homo sapiens, UniProt Q9NYK1); test: TLR7 inhibition reporter assay (HEK-Blue, SEAP); settings: HEK-Blue cells overexpressing human TLR7, gardiquimod 7.5 μM, 22 hour incubation
T1 construct: host or cells: HEK-Blue cells
T1 sequence (Q9NYK1 27-1049): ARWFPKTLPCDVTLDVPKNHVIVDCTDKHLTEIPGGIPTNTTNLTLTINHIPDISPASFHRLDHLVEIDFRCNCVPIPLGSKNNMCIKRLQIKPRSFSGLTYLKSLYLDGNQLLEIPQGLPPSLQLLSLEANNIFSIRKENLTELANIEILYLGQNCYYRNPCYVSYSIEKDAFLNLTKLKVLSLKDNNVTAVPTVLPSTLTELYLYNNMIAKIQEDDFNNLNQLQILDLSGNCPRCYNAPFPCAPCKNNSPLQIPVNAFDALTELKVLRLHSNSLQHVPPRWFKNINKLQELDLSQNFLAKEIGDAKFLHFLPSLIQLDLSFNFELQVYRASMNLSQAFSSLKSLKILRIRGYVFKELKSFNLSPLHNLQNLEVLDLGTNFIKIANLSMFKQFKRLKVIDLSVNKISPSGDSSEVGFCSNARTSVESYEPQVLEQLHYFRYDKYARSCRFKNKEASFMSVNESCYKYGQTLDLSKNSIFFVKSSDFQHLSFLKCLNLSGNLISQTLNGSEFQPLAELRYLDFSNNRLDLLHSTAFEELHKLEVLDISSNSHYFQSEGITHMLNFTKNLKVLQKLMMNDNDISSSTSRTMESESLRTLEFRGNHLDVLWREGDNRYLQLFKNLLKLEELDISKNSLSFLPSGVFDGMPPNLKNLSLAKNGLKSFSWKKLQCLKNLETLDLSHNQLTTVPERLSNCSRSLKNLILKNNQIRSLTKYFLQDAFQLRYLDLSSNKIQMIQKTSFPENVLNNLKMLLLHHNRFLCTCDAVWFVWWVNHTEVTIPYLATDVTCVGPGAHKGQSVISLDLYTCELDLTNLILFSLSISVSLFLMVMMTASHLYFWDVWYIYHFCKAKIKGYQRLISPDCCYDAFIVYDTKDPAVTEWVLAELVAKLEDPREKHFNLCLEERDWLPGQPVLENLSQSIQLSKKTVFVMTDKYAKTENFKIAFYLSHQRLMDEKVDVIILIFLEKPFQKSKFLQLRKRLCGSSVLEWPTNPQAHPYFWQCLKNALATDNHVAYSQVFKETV
How it was run: (§1)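 Compound treatment: 30 min, RT, 0.05 nM–50 μM final. Agonist: TLR7 gardiquimod 7.5 μM; TLR8 R848 15.9 μM; TLR9 ODN2006 5 nM. Incubation 22 h, 37 °C, 5% CO2. Readout SEAP, HEK-Blue Detection.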

human TLR9 = target: T2, human TLR9 (Homo sapiens, UniProt Q9NR96); test: TLR9 inhibition reporter assay (HEK-Blue, SEAP); settings: HEK-Blue cells overexpressing human TLR9, ODN2006 5 nM, 22 hour incubation
T2 construct: host or cells: HEK-Blue cells
T2 sequence (Q9NR96 26-1032): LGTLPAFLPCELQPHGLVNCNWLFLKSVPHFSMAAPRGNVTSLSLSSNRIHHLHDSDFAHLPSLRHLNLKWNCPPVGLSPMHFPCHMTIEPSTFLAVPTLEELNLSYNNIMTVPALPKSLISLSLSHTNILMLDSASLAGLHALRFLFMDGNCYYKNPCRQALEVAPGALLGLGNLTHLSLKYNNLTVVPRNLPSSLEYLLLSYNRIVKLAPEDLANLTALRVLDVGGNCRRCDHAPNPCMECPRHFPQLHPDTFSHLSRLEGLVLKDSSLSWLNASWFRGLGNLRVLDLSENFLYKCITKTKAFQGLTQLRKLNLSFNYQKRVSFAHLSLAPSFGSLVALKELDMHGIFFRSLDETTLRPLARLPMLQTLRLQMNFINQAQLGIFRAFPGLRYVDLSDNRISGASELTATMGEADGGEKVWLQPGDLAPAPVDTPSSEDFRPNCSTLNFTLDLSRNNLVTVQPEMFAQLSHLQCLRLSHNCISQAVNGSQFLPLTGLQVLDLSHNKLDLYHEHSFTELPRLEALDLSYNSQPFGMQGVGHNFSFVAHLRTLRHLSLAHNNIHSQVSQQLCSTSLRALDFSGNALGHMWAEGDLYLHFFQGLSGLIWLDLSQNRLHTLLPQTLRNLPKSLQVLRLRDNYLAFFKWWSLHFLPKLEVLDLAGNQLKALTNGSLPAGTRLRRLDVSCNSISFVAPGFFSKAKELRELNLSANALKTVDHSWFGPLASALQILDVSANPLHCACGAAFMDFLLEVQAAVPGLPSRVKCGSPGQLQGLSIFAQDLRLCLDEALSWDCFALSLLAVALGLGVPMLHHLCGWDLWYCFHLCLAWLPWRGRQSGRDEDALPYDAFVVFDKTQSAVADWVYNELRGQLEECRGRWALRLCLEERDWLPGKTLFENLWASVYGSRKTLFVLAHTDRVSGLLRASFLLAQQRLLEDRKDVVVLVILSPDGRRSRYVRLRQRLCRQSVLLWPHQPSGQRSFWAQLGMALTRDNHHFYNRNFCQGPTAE
How it was run: as §1

human TLR8 = target: T3, human TLR8 (Homo sapiens, UniProt Q9NR97); test: TLR8 inhibition reporter assay (HEK-Blue, SEAP); settings: HEK-Blue cells overexpressing human TLR8, R848 15.9 μM, 22 hour incubation
T3 construct: host or cells: HEK-Blue cells
T3 sequence (Q9NR97 27-1041): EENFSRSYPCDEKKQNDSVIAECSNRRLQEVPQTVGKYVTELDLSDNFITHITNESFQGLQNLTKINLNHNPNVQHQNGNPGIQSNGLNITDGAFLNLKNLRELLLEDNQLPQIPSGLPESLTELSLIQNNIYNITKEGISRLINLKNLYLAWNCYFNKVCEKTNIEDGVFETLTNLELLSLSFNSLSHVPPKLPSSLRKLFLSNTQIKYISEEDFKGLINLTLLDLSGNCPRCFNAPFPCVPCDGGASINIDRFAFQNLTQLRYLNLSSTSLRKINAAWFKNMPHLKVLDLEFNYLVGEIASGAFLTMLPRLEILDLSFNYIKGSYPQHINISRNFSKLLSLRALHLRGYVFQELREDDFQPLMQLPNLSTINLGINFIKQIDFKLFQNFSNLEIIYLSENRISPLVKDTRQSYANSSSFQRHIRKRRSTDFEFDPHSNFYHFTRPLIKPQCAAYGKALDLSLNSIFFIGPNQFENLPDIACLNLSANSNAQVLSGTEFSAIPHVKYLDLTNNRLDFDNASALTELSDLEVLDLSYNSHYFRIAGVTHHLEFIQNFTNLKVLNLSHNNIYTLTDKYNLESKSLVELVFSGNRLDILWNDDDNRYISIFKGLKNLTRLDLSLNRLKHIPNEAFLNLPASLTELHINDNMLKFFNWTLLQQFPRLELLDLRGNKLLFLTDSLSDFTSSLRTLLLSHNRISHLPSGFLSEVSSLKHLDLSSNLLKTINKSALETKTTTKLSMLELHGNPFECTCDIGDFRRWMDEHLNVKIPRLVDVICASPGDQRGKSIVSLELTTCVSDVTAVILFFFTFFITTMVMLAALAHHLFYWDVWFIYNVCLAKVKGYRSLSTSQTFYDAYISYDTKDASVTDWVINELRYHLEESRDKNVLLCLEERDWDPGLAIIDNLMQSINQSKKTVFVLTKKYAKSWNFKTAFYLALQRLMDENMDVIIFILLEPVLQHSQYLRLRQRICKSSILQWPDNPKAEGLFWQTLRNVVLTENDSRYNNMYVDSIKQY
How it was run: as §1

Compound	IC50 (human TLR7) [nM]	IC50 (human TLR9) [nM]	IC50 (human TLR8) [nM]
Cc1c(-c2[nH]c3ccc(C4C[C@H]5CC[C@@H](C4)N5CC4(C)COC4)cc3c2C(C)C)cn2cnnc2c1C (single isomer, unassigned) [Example 121]	3.2	4840	47.6
CNC(=O)CN1CCC(c2ccc3[nH]c(-c4cc(C)c5nncn5c4)c(C(C)C)c3c2)CC1 [Example 16, 2-(4-(3-isopropyl-2-(8-methyl-[1,2,4]triazolo[4,3-a]pyridin-6-yl)-1H-indol-5-yl)piperidin-1-yl)-N-methylacetamide]	2	2520	10.2
Cc1cc2nncn2cc1-c1[nH]c2ccc(C3CCN(CC(=O)N(C)C)CC3)cc2c1C(C)C [Example 18, 2-(4-(3-isopropyl-2-(7-methyl-[1,2,4]triazolo[4,3-a]pyridin-6-yl)-1H-indol-5-yl)piperidin-1-yl)-N,N-dimethylacetamide]	65.9	685	715
Cc1c(-c2[nH]c3ccc(C4C[C@H]5CC[C@@H](C4)N5CC4(C)COC4)cc3c2C(C)C)cn2cnnc2c1C (single isomer, unassigned) [Example 120]	6.7	3800	45.9

More lines, in order of falling IC50 (human TLR7), values ahead:

IC50 (human TLR7) [nM]	IC50 (human TLR9) [nM]	IC50 (human TLR8) [nM]	Compound
13.7	4440	31.6	Cc1c(-c2[nH]c3ccc(C4CCN(C5CC(C)(C)OC(C)(C)C5)CC4)cc3c2C(C)C)cn2cnnc2c1C [Example 100, 6-(3-isopropyl-5-(1-(2,2,6,6-tetramethyltetrahydro-2H-pyran-4-yl)piperidin-4-yl)-1H-indol-2-yl)-7,8-dimethyl-[1,2,4]triazolo[4,3-a]pyridine]
12.7	1130	1.8	Cc1cc(-c2[nH]c3ccc(C4CCN(Cc5ccn(C)n5)CC4)cc3c2C(C)C)cn2c(C)nnc12 [Example 71, 6-(3-isopropyl-5-(1-((1-methyl-1H-pyrazol-3-yl)methyl)piperidin-4-yl)-1H-indol-2-yl)-3,8-dimethyl-[1,2,4]triazolo[4,3-a]pyridine]
0.9	2270	4.6	Cc1c(-c2[nH]c3ccc(C4CCN(CC(C)(C)O)CC4)cc3c2C(C)C)cn2cnnc2c1Cl [Example 61, 1-(4-(2-(8-chloro-7-methyl-[1,2,4]triazolo [4,3-a]pyridin-6-yl)-3-isopropyl-1H-indol-5-yl)piperidin-1-yl)-2-methylpropan-2-ol]
